Results on 5 compounds are retold here after ChEMBL document CHEMBL4130480, “Serinolamides and Lyngbyabellins from an Okeania sp. Cyanobacterium Collected from the Red Sea” (J Nat Prod, 2017).

Activity calls are given as the source filed them. No cut-off for these calls is given here.

In one test the test system is Amphibalanus amphitrite. Description: Antifouling activity against cypris stage of Amphibalanus amphitrite larvae assessed as inhibition of larval settlement at < 1 ug/ml after 48 to 120 hrs by microscopic analysis. Format: functional, organism-based.
The next test deals with MCF7. Nature of the test: Growth inhibition of human MCF7 cells after 72 hrs by MTT assay. The class given is functional. As to conditions: MCF7, 72 h. For orientation: Formazan colour is commonly taken as a measure of viable cells.
Another test deals with N2a. Description: Growth inhibition of mouse Neuro2a cells after 72 hrs by MTT assay. The class given is functional.
Another test relates to NCI-H460. Nature of the test: Growth inhibition of human H460 cells after 72 hrs by MTT assay. Format: functional. As to conditions: NCI-H460, 72 h.

As to `CCCCCCCCCCCCC/C=C(\C)C(=O)N[C@H](COC)COC(C)=O`, the inhibition entry in the test on Amphibalanus amphitrite is “Active”.

As to `CCCCCCCCCCCCC/C=C(\C)C(=O)N[C@@H](CO)COC`, the inhibition result in the test on Amphibalanus amphitrite is “Active”.

For orientation: GI50 means the concentration giving 50% growth inhibition. A high value points to lower sensitivity of the cells. `CCCC(=O)N[C@@H](CC(C)C)[C@H](O)CC(=O)OC[C@@H](O)c1nc(C(=O)O[C@@H](CCCC(C)(Cl)Cl)[C@H](C)C(=O)O[C@H](c2nc(C(=O)OC)cs2)C(C)(C)O)cs1`: in the test on MCF7, halving of growth (GI50) required 9 µM. In other words, the single-digit micromolar range.

With `COC(=O)c1csc([C@@H](OC(=O)[C@@H](C)[C@H](CCCC(C)(Cl)Cl)OC(=O)c2csc([C@H](O)CO)n2)C(C)(C)O)n1`, the concentration for 50% growth inhibition (GI50) in the test with MCF7 is > 160 µM.

With `C[C@@H]1C(=O)O[C@@H](C(C)(C)O)c2nc(cs2)C(=O)OC[C@@H](O)c2nc(cs2)C(=O)O[C@H]1CCCC(C)(Cl)Cl`, the concentration for 50% growth inhibition (GI50) in the test on MCF7 amounted to 120 µM; in the test on N2a, 4.8 µM; with NCI-H460, 2.2 µM.
